The numbers were not newly measured in patent publication US11155746B2, “Compositions and methods for reducing hydrogen sulfide and microbial influenced corrosion in crude oil, natural gas, and in associated equipment” (priority 2017, dated 2021), which cites them from elsewhere.

The conditions of this series: atmospheric exposure.

Take `S` [H2S, hydrogen sulfide]: the “exposure concentration that can be rapidly fatal” value is on record as “above 600 ppm” and the “exposure concentration that can cause damage to internal organs” value was “above 100 ppm”.
